Tests used:
[1] = The drug is tested on the gut metagenome community of MV04 with ENA study accession number: PRJEB31790 and ENA sample accession number: SAMEA5537485 for biotransformation. The drug concentrations were measured over 9 timepoints collected between 0 and 24 hours of incubation by liquid-chromatography-coupled mass spectrometry (LC–MS); format: ADME; design: dose 2 uM, timepoint 0, 1, 2, 4, 6, 8, 12, 18, 24 hours; conditions: 2 µM
[2] = The drug is tested on the gut metagenome community of MV02 with ENA study accession number: PRJEB31790 and ENA sample accession number: SAMEA5537483 for biotransformation. The drug concentrations were measured over 9 timepoints collected between 0 and 24 hours of incubation by liquid-chromatography-coupled mass spectrometry (LC–MS); format: ADME; design: dose 2 uM, timepoint 0, 1, 2, 4, 6, 8, 12, 18, 24 hours; conditions: 2 µM
[3] = The drug is tested on the gut metagenome community of MV14 with ENA study accession number: PRJEB31790 and ENA sample accession number: SAMEA5537495 for biotransformation. The drug concentrations were measured over 9 timepoints collected between 0 and 24 hours of incubation by liquid-chromatography-coupled mass spectrometry (LC–MS); format: ADME; design: dose 2 uM, timepoint 0, 1, 2, 4, 6, 8, 12, 18, 24 hours; conditions: 2 µM
[4] = The drug is tested on the gut metagenome community of MV22 with ENA study accession number: PRJEB31790 and ENA sample accession number: SAMEA5537503 for biotransformation. The drug concentrations were measured over 9 timepoints collected between 0 and 24 hours of incubation by liquid-chromatography-coupled mass spectrometry (LC–MS); format: ADME; design: dose 2 uM, timepoint 0, 1, 2, 4, 6, 8, 12, 18, 24 hours; conditions: 2 µM
[5] = The drug is tested on the gut metagenome community of MV27 with ENA study accession number: PRJEB31790 and ENA sample accession number: SAMEA5537508 for biotransformation. The drug concentrations were measured over 9 timepoints collected between 0 and 24 hours of incubation by liquid-chromatography-coupled mass spectrometry (LC–MS); format: ADME; design: dose 2 uM, timepoint 0, 1, 2, 4, 6, 8, 12, 18, 24 hours; conditions: 2 µM
[6] = The drug is tested on the gut metagenome community of MV16 with ENA study accession number: PRJEB31790 and ENA sample accession number: SAMEA5537497 for biotransformation. The drug concentrations were measured over 9 timepoints collected between 0 and 24 hours of incubation by liquid-chromatography-coupled mass spectrometry (LC–MS); format: ADME; design: dose 2 uM, timepoint 0, 1, 2, 4, 6, 8, 12, 18, 24 hours; conditions: 2 µM
[7] = The drug is tested on the gut metagenome community of MV13 with ENA study accession number: PRJEB31790 and ENA sample accession number: SAMEA5537494 for biotransformation. The drug concentrations were measured over 9 timepoints collected between 0 and 24 hours of incubation by liquid-chromatography-coupled mass spectrometry (LC–MS); format: ADME; design: dose 2 uM, timepoint 0, 1, 2, 4, 6, 8, 12, 18, 24 hours; conditions: 2 µM
[8] = The drug is tested on the gut metagenome community of MV19 with ENA study accession number: PRJEB31790 and ENA sample accession number: SAMEA5537500 for biotransformation. The drug concentrations were measured over 9 timepoints collected between 0 and 24 hours of incubation by liquid-chromatography-coupled mass spectrometry (LC–MS); format: ADME; design: dose 2 uM, timepoint 0, 1, 2, 4, 6, 8, 12, 18, 24 hours; conditions: 2 µM
[9] = The drug is tested on the gut metagenome community of MV21 with ENA study accession number: PRJEB31790 and ENA sample accession number: SAMEA5537502 for biotransformation. The drug concentrations were measured over 9 timepoints collected between 0 and 24 hours of incubation by liquid-chromatography-coupled mass spectrometry (LC–MS); format: ADME; design: dose 2 uM, timepoint 0, 1, 2, 4, 6, 8, 12, 18, 24 hours; conditions: 2 µM
[10] = The drug is tested on the gut metagenome community of MV17 with ENA study accession number: PRJEB31790 and ENA sample accession number: SAMEA5537498 for biotransformation. The drug concentrations were measured over 9 timepoints collected between 0 and 24 hours of incubation by liquid-chromatography-coupled mass spectrometry (LC–MS); format: ADME; design: dose 2 uM, timepoint 0, 1, 2, 4, 6, 8, 12, 18, 24 hours; conditions: 2 µM
[11] = The drug is tested on the gut metagenome community of MV09 with ENA study accession number: PRJEB31790 and ENA sample accession number: SAMEA5537490 for biotransformation. The drug concentrations were measured over 9 timepoints collected between 0 and 24 hours of incubation by liquid-chromatography-coupled mass spectrometry (LC–MS); format: ADME; design: dose 2 uM, timepoint 0, 1, 2, 4, 6, 8, 12, 18, 24 hours; conditions: 2 µM
[12] = The drug is tested on the gut metagenome community of MV08 with ENA study accession number: PRJEB31790 and ENA sample accession number: SAMEA5537489 for biotransformation. The drug concentrations were measured over 9 timepoints collected between 0 and 24 hours of incubation by liquid-chromatography-coupled mass spectrometry (LC–MS); format: ADME; design: dose 2 uM, timepoint 0, 1, 2, 4, 6, 8, 12, 18, 24 hours; conditions: 2 µM
[13] = The drug is tested on the gut metagenome community of MV26 with ENA study accession number: PRJEB31790 and ENA sample accession number: SAMEA5537507 for biotransformation. The drug concentrations were measured over 9 timepoints collected between 0 and 24 hours of incubation by liquid-chromatography-coupled mass spectrometry (LC–MS); format: ADME; design: dose 2 uM, timepoint 0, 1, 2, 4, 6, 8, 12, 18, 24 hours; conditions: 2 µM
[14] = The drug is tested on the gut metagenome community of MV12 with ENA study accession number: PRJEB31790 and ENA sample accession number: SAMEA5537493 for biotransformation. The drug concentrations were measured over 9 timepoints collected between 0 and 24 hours of incubation by liquid-chromatography-coupled mass spectrometry (LC–MS); format: ADME; design: dose 2 uM, timepoint 0, 1, 2, 4, 6, 8, 12, 18, 24 hours; conditions: 2 µM
[15] = The drug is tested on the gut metagenome community of MV25 with ENA study accession number: PRJEB31790 and ENA sample accession number: SAMEA5537506 for biotransformation. The drug concentrations were measured over 9 timepoints collected between 0 and 24 hours of incubation by liquid-chromatography-coupled mass spectrometry (LC–MS); format: ADME; design: dose 2 uM, timepoint 0, 1, 2, 4, 6, 8, 12, 18, 24 hours; conditions: 2 µM
[16] = The drug is tested on Salmonella typhimurium strain: LT2 for biotransformation. The drug concentrations were measured before and after a 12-h incubation by liquid-chromatography-coupled mass spectrometry (LC–MS); conditions: salmonella enterica subsp. enterica, 2 µM

| SMILES | Bacterial Biotransformation [1] | Bacterial Biotransformation [2] | Bacterial Biotransformation [3] | Bacterial Biotransformation [4] | Bacterial Biotransformation [5] | Bacterial Biotransformation [6] | Bacterial Biotransformation [7] | Bacterial Biotransformation [8] | Bacterial Biotransformation [9] | Bacterial Biotransformation [10] | Bacterial Biotransformation [11] | Bacterial Biotransformation [12] | Bacterial Biotransformation [13] | Bacterial Biotransformation [14] | Bacterial Biotransformation [15] | Bacterial Biotransformation [16] |
| --- | --- | --- | --- | --- | --- | --- | --- | --- | --- | --- | --- | --- | --- | --- | --- | --- |
| C[C@@H]1C[C@H]2[C@@H]3CCC4=CC(=O)C=C[C@]4(C)[C@@]3(F)[C@@H](O)C[C@]2(C)[C@@]1(O)C(=O)CO [DEXAMETHASONE] | Compound NOT metabolized | Compound NOT metabolized | Compound NOT metabolized | Compound NOT metabolized | Compound NOT metabolized | Compound NOT metabolized | Compound NOT metabolized | Compound NOT metabolized | Compound NOT metabolized | Compound NOT metabolized | Compound metabolized | Compound NOT metabolized | Compound NOT metabolized | Compound NOT metabolized | Compound NOT metabolized |  |
| CC(C)(C)NC[C@H](O)COc1ccccc1C1CCCC1.CC(C)(C)NC[C@H](O)COc1ccccc1C1CCCC1.O=S(=O)(O)O [PENBUTOLOL SULFATE] |  |  |  |  |  |  |  |  |  |  |  |  |  |  |  | Compound NOT metabolized |
